Literature values in US20070160648A1, “Methods for treating otic disorders” (pSivida Inc., priority 2002, published 2007).

patients displaying some vestibular impairment (one gram of streptomycin daily for 60 to 120 days): 25%
Compound: [H]/N=C(/N)N[C@H]1[C@H](O)[C@@H](O)[C@H](O[C@@H]2O[C@@H](C)[C@](O)(C=O)[C@H]2O[C@@H]2O[C@@H](CO)[C@H](O)[C@@H](O)[C@@H]2NC)[C@@H](N/C(N)=N\[H])[C@@H]1O [streptomycin]
incidence of vestibular impairment (two grams per day): 75%
